From PubChem BioAssay (NCI)
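Grown in 96-well plates, cells were treated for 48 hours with each compound at five concentrations. Insufficient inhibition: endpoint recorded as highest concentration tested. TGI: total growth inhibition.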

Key:
Assay in all cases: NCI-60 cell line screen, 48 h
[1] = tested on: 786-0 renal
[2] = tested on: CCRF-CEM leukemia
[3] = tested on: A498 renal
[4] = tested on: SK-MEL-5 melanoma
[5] = tested on: OVCAR-8 ovarian
[6] = tested on: TK-10 renal
[7] = tested on: OVCAR-3 ovarian
[8] = tested on: M14 melanoma
[9] = tested on: U251 CNS
[10] = tested on: DU-145 prostate
[11] = tested on: NCI-H460 lung
[12] = tested on: T-47D breast
[13] = tested on: LOX IMVI melanoma
[14] = tested on: HCC-2998 colon
[15] = tested on: OVCAR-5 ovarian
[16] = tested on: SK-OV-3 ovarian
[17] = tested on: SNB-19 CNS
[18] = tested on: NCI-H522 lung
[19] = tested on: UO-31 renal
[20] = tested on: HCT-116 colon
[21] = tested on: KM12 colon
[22] = tested on: COLO 205 colon
[23] = tested on: OVCAR-4 ovarian
[24] = tested on: MALME-3M melanoma
[25] = tested on: HCT-15 colon
[26] = tested on: SW-620 colon
[27] = tested on: HL-60(TB) leukemia
[28] = tested on: SR leukemia
[29] = tested on: SF-268 CNS
[30] = tested on: MDA-MB-435
[31] = tested on: SN12C renal
[32] = tested on: RPMI-8226 leukemia
[33] = tested on: K-562 leukemia
[34] = tested on: HOP-92 NSCLC
[35] = tested on: UACC-257 melanoma
[36] = tested on: PC-3 prostate
[37] = tested on: MDA-MB-231 breast
[38] = tested on: A549 NSCLC
[39] = tested on: HS 578T breast
[40] = tested on: MOLT-4 leukemia
[41] = tested on: NCI/ADR-RES ovarian
[42] = tested on: EKVX NSCLC
[43] = tested on: SK-MEL-28 melanoma
[44] = tested on: ACHN renal
[45] = tested on: RXF 393 renal
[46] = tested on: CAKI-1 renal
[47] = tested on: SK-MEL-2 melanoma
[48] = tested on: MDA-N
[49] = tested on: MCF7 breast
[50] = tested on: SNB-75 CNS
[51] = tested on: UACC-62 melanoma
[52] = tested on: NCI-H23 lung
[53] = tested on: BT-549 breast
[54] = tested on: IGROV1 ovarian
[55] = tested on: SF-539 CNS
[56] = tested on: NCI-H226 lung
[57] = tested on: HOP-62 NSCLC
[58] = tested on: SF-295 CNS
[59] = tested on: HT29 colon

Molecule C=CCN1C(=O)/C(=C/c2ccco2)N=C1SC/C=C/C has a TGI [1] of over 100 µM, a TGI [2] of over 100 µM and a TGI [3] of over 100 µM. The TGI [4] was 44.3 µM, the TGI [5] was over 100 µM and the TGI [6] was over 100 µM. For the same molecule, the TGI [7] was over 100 µM, the TGI [8] was over 100 µM and the TGI [9] was over 100 µM. The TGI [10] was over 100 µM, the TGI [11] was over 100 µM and the TGI [12] was over 100 µM. The TGI [13] was 80.6 µM, the TGI [14] was over 100 µM and the TGI [15] was over 100 µM. The TGI [16] was over 100 µM, the TGI [17] was over 100 µM and the TGI [18] was over 100 µM. For the same molecule, the TGI [19] was over 100 µM, the TGI [20] was over 100 µM and the TGI [21] was over 100 µM. It also gave a TGI [22] of over 100 µM, a TGI [23] of over 100 µM and a TGI [24] of over 100 µM. It also gave a TGI [25] of over 100 µM, a TGI [26] of over 100 µM and a TGI [27] of 76 µM. For the same molecule, the TGI [28] was 52.9 µM, the TGI [29] was over 100 µM and the TGI [30] was over 100 µM. For the same molecule, the TGI [31] was over 100 µM, the TGI [32] was 76.6 µM and the TGI [33] was over 100 µM. For the same molecule, the TGI [34] was over 100 µM, the TGI [35] was over 100 µM and the TGI [36] was over 100 µM. It also gave a TGI [37] of over 100 µM, a TGI [38] of over 100 µM and a TGI [39] of over 100 µM. It also gave a TGI [40] of 54.7 µM, a TGI [41] of over 100 µM and a TGI [42] of over 100 µM. The TGI [43] was over 100 µM, the TGI [44] was over 100 µM and the TGI [45] was 96.1 µM. For the same molecule, the TGI [46] was over 100 µM, the TGI [47] was 86.4 µM and the TGI [48] was 77.5 µM. It also gave a TGI [49] of 65.1 µM, a TGI [50] of over 100 µM and a TGI [51] of 73.7 µM. For the same molecule, the TGI [52] was over 100 µM, the TGI [53] was over 100 µM and the TGI [54] was over 100 µM. For the same molecule, the TGI [55] was over 100 µM, the TGI [56] was over 100 µM and the TGI [57] was over 100 µM. It also gave a TGI [58] of over 100 µM and a TGI [59] of over 100 µM.
